Tests used:
Alox5 = Alox5 expression in Dex-treated myotubes (qPCR, Western blot); type: cell-based, mouse; settings: qPCR and Western blotting
Description: (§1) C2C12 murine skeletal muscle myoblasts were obtained from Koram Biotech (Republic of Korea). The cells were maintained in DMEM growth medium supplemented with 10% FBS, 1% penicillin, and streptomycin. When myoblasts proliferated to approximately 90%, they were differentiated into muscle fibers by treating them with DMEM differentiation medium supplemented with 2% HS, 1% penicillin, and streptomycin for 96 hours. Differentiated muscle fibers were treated with 10 μM Dex for 24 hours to induce sarcopenia. To evaluate the degree of differentiation of muscle cells, differentiating myoblasts were treated with the corresponding compound in differentiation medium for 24 or 48 hours.
The concentration of intracellular protein was measured using the Bradford assay (Bio-Rad, USA, CA), and electrophoresis was performed by loading on 10% and 12% polyacrylamide gels. […] Band intensity was measured using ImageJ 1.52 software (National Institutes of Health, USA), and intracellular protein was normalized to α-tubulin.
For quantitative real-time PCR, transcript levels of genes of interest were analyzed using the StepOnePlus real-time PCR system (Applied Biosystems, UK). […] Denaturation was performed at 95° C. for 15 s, annealing was performed at 60° C. for 1 min, and extension was performed at 72° C. for 20 s with fluorescence detection at 72° C. after each cycle. […]

LTB4 = LTB4 ELISA in C2C12 muscle fibers; type: cell-based, mouse; settings: Dex-treated myotubes
Description: as §1, with “48 hours. An LTB4 ELISA kit was purchased from MyBioSource (CA, USA). The concentrations of LTB4 in skeletal muscles and cell lysates were measured by the enzyme-linked […] method according to the manufacturer's instructions. Samples (100 μL) were maintained at room temperature (RT) for 1 hour in 96 wells with polyclonal LTB4 antibody. Afterwards, an enzymatic reaction was performed to stop the process, and the absorbance was measured at 405 nm.” for “48 hours.”

[1] = tested on: Dex-treated C57BL/6J mice; assay: Dexamethasone-induced sarcopenia mouse model; type: in vivo
Description: For quantitative real-time PCR, transcript levels of genes of interest were analyzed using the StepOnePlus real-time PCR system (Applied Biosystems, UK). Total RNA was reverse transcribed to prepare cDNA using AccuPower® RT PreMix (Bioneer Corporation). The obtained cDNA was subjected to real-time PCR according to the manufacturer's instructions with the following changes. PCR was performed in triplicate in a total volume of 20 μL 2× Power SYBR Green PCR Master Mix (Enzynomics, Republic of Korea) containing 200 nM (final concentration) of each specific primer and 1 μL of cDNA synthesized from 1 μg of total RNA. PCR amplification consisted of incubating the mixture at 95° C. for 10 minutes, followed by 40 cycles of denaturation, annealing, and extension. Denaturation was performed at 95° C. for 15 s, annealing was performed at 60° C. for 1 min, and extension was performed at 72° C. for 20 s with fluorescence detection at 72° C. after each cycle. After the final cycle, melting point analysis of all samples was performed within the range of 60 to 95° C. using continuous fluorescence detection. Specific cDNA samples were included in each run and used as reference material for comparison between runs. The expression level of GAPDH was used to calculate and normalize the expression levels of all other genes. Results were expressed as relative expression levels for each gene. The synthesized cDNA was amplified by quantitative real-time PCR (qRT-PCR) or standard PCR.
An LTB4 ELISA kit was purchased from MyBioSource (CA, USA). The concentrations of LTB4 in skeletal muscles and cell lysates were measured by the enzyme-linked […] method according to the manufacturer's instructions. Samples (100 μL) were maintained at room temperature (RT) for 1 hour in 96 wells with polyclonal LTB4 antibody. Afterwards, an enzymatic reaction was performed to stop the process, and the absorbance was measured at 405 nm.
8. Dexamethasone-Induced Sarcopenia Mouse Model 12-week-old male C57BL/6J mice were divided into 3 groups of 5 each and treated with drugs as follows: 1) PBS with 5% DMSO and 5% Tween 80 (Vehicle group); 2) 15 mg/kg of Dexamethasone (at a concentration of 15 mg/kg, in PBS containing 5% DMSO and 5% Tween 80) (Dexamethasone group); and 3) 10 mg/kg of malotilate (at a concentration of 10 mg/kg, in PBS containing 15 mg/kg Dexamethasone, 5% DMSO, and 5% Tween 80) (Malotilate group). Those were injected intraperitoneally (solution volume=200 μL) for 2 weeks. Afterwards, the muscle function and conditions of the mice were analyzed.
Grip strength was measured with the BIO-GS3 grip strength test meter (Bioseb, FL, USA). Grip strength was measured by placing the mouse on a grid and gently pulling it back with all four paws until the mouse fell off the grid. The trials were conducted with a time interval of 30 seconds, and the largest value among the three trials was selected as the representative muscle strength.
Muscle fatigue was measured from two different models using Rotarod (Ugo Basile, Italy). One is a constant speed model that measures how long movement can be continued on a cylinder rotating at a constant speed, and the other model is an acceleration model that measures how fast the mouse can continue movement when the speed of the cylinder increases at regular intervals. Mice were trained to adapt from 5 rpm to 15 rpm one day before measurement in the above two models.
Before sacrifice, mice were anesthetized by intraperitoneally administering 22 mg/kg Ketamine (Yuhan, Republic of Korea) and 10 mg/kg xylazine (Bayer, Republic of Korea) by IP injection, and then samples were collected. Quadriceps, gastrocnemius, tibialis anterior and soleus muscles were sampled and their weights were measured. The muscles sampled for immunohistostaining were cultured overnight at 4° C. with 4% paraformaldehyde, fixed, embedded in paraffin solution, and stored at −80° C. […]

human myotubes = assay: Dexamethasone-induced atrophy of human skeletal myotubes, H&E, diameter; type: cell-based; settings: dexamethasone co-treatment
Description: Human-derived myoblasts were purchased from Thermo-Fisher Scientific (USA). Myoblasts were thawed using a water bath, centrifuged at 180 g for 5 min at room temperature, and washed with 20 mL DM. Myoblasts were then resuspended in DM and seeded in a 12-well plate at a density of 4.8×10^4 cells/well. After 48 hours, myoblasts were treated with compounds of interest for 24 hours. Myotubes were stained with H&E. After light microscopy analysis of DIC captured images (Olympus CKX41), myotubes were measured using ImageJ 1.48 software (National Institutes of Health, USA).

[2] = Dex-treated mice, 10 mg/kg intraperitoneally, 2 weeks
[3] = Dex-treated mice, quadriceps, mRNA

Q: For CC(C)OC(=O)C(C(=O)OC(C)C)=C1SC=CS1 [malotilate, Malotilate], which Alox5 expression (Alox5) is on record?
A: Its Alox5 expression is “did not affect”.

Q: What about the LTB4 levels (LTB4) of the same compound?
A: Its LTB4 levels is “lowered”.

Q: And the grip strength [1, 2]?
A: Its grip strength is “significantly increased”.

Q: And the “latency to fall, rotarod” value [1, 2]?
A: The value was “significantly increased”.

Q: And the “maximum velocity, rotarod” value [1, 2]?
A: The value was “significantly increased”.

Q: And the quadriceps muscle mass [1, 2]?
A: The quadriceps muscle mass was “increased”.

Q: And the soleus muscle mass [1, 2]?
A: The soleus muscle mass was “increased”.

Q: And the “LTB4 level in muscle (ELISA)” value ([1]; Dex-treated mice, quadriceps)?
A: The value was “lowered”.

Q: What about the “average muscle fiber cross sectional area (CSA)” value ([1]; Dex-treated mice, quadriceps) of the same compound?
A: Its value is “increased”.

Q: What about the “proportion of fibers with larger CSA” value ([1]; Dex-treated mice, quadriceps) of the same compound?
A: The value was “increased”.

Q: What about the “MuRF-1 expression in muscle” value [1, 3] of the same compound?
A: Its value is “reduced”.

Q: And the “atrogin-1 expression in muscle” value [1, 3]?
A: Its value is “reduced”.

Q: And the skeletal muscle atrophy ([1]; animal model of sarcopenia due to Dex treatment)?
A: The skeletal muscle atrophy was “inhibited”.

Q: And the “atrophy of human myotubes” value (human myotubes; 24 hours)?
A: Its value is “can prevent atrophy”.

Q: And the mean myotube diameter (human myotubes; human myotubes)?
A: Its mean myotube diameter is “increased”.

Q: And the “proportion of myotubes of larger size” value (human myotubes; human myotubes)?
A: The value was “greater proportion”.
